The results in this text go back to patent publication US8318297B2, “Titanate nanowire, titanate nanowire scaffold, and processes of making same” (Board of Trustees of the University of Arkansas, priority 2007, dated 2012).

This data set in a line: Controlled release of crystal violet from nanowire scaffolds on Ti foil. It counts as physicochemical. The following applies: for Release (%): crystal violet released from nanowire scaffolds on Ti, 10 mL fresh water. The protocol:
A piece of dried titanium foil (2.2 cm^2) that was coated with nanofiber scaffolds was soaked in 100 mL of 0.001 mol/L crystal violet (C25H30ClN3, as a simulated drug) solution for 12 hours at room temperature. Then, the foil was collected, rinsed with deionized water, dried at room temperature overnight, and placed in 10 mL of fresh water for releasing the crystal violet molecules. The released crystal violet was measured on the Beckman DU-530 UV-Visible Spectrometer. A piece of dried titanium foil (2.2 cm^2) pre-coated with the nanowire scaffolds was soaked in 100 mL of 0.001 mol/L crystal violet (C25H30ClN3, as a simulated drug) solution for 12 hrs at room temperature. Then, the foil was collected, rinsed with deionized water, dried at room temperature overnight, and was then placed in 10 mL of fresh water for releasing the crystal violet molecules. The released crystal violet was measured on the Beckman DU-530 UV-Visible Spectrometer.

For the molecule `CN(C)c1ccc(C(=C2C=CC(=[N+](C)C)C=C2)c2ccc(N(C)C)cc2)cc1` [Crystal violet, crystal violet], the “Release (%)” value is given as 22.6% (time 0 hours); 82.0% (time 2 hours); around 80% (time 2 hours, listed as model drug); 95.0% (time 4 hours); 99.2% (time 6 hours); 100% (time 12 hours). The “time at which the model drug's concentration reached a maximum” value (release from nanowire scaffold on Ti foil) was 6 h.
